Measurements published in PMC9144521 (Viruses, 2022).

What was measured:
AdV3 = assay: Anti-AdV activity assay (IFA of hexon), secondary screen, AdV3; assay type: cell-based, Human adenoviruses type 3; details: for Selective Index AdV3: CC50/EC50, Vero cells; for EC50: 48 h, IFA of hexon, 0.02 to 5 μM
AdV5 = assay: Anti-AdV activity assay (IFA of hexon), secondary screen, AdV5; assay type: cell-based, Human adenoviruses type 5; details: for Selective Index AdV5: CC50/EC50, Vero cells; for EC50: 48 h, IFA of hexon, 0.02 to 5 μM
adenovirus 5 = tested on: adenovirus 5; set-up: method as in ref 28, 31 = [28]; details: cited from earlier work
in vitro = details: African green monkey
Aurora A/B/C = details: cited from earlier work
Aurora A = tested on: Aurora A; set-up: method as in ref 25 = [25]; details: cited from earlier work

Row | EC50 (AdV3; Vero cells) [nM] | EC50 (AdV5; Vero cells) [nM] | SMILES | Selective Index AdV3 (AdV3) | Selective Index AdV5 (AdV5) | reported inhibition of replication of adenovirus 5 (adenovirus 5) | CC50 at 48 h (in vitro) [nM] | inhibition of AdV3 (in words) (AdV3; Vero cells) | inhibition of AdV5 (in words) (AdV5; Vero cells) | selectivity for Aurora kinases than p38α, Tyk2, and JNK2 (Aurora A/B/C) [fold] | CC50 (Vero cells) [nM] | selectivity for Aurora A than Aurora B (Aurora A) [fold] | CC50 at 48 h (in vitro; Vero cells) [nM]
1 | 20 | > 5000 | Cc1csc(-c2nnc(Nc3ccc(Oc4ncccc4-c4ccnc(N)n4)cc3)c3ccccc23)c1 [AMG-900] | 226.12 | – | – | 3690 | potently inhibits only AdV3 | but not AdV5 | > 10 | – | – | –
2 | 260 | 590 | COC1(c2sc3c(N4CCOCC4)nc(-c4cnc(N)nc4)nc3c2C)COC1 [GNE-317] | – | – | – | – | – | – | – | > 5000 | – | –
3 | 310 | > 5000 | Cl.Cl.O=S(=O)(NCCNC/C=C/c1ccc(Br)cc1)c1cccc2cnccc12 [H 89 2HCl] | >15.97 | – | – | – | – | – | – | > 5000 | – | –
4 | 20 | 30 | COc1cccc(-c2cc(F)ccc2[C@H]2Cc3nc(N)nc(C)c3C(=O)N2)n1 [HSP990] | 205.19 | 148.47 | – | – | – | – | – | 4310 | – | –
5 | 100 | 970 | O=C(/C=C\n1cnc(-c2cc(C(F)(F)F)cc(C(F)(F)F)c2)n1)N1CC(F)(F)C1 [KPT-276] | >50.46 | >5.13 | – | – | – | – | – | > 5000 | – | –
6 | 150 | 610 | O=C(/C=C\n1cnc(-c2cc(C(F)(F)F)cc(C(F)(F)F)c2)n1)NNc1ccccn1 [KPT-335] | 12.65 | 3.14 | inhibit the replication of adenovirus 5 | – | – | – | – | – | – | 1900
7 | 60 | 120 | COc1ccc(-c2cc3c(C)nc(N)nc3n([C@H]3CC[C@H](OCCO)CC3)c2=O)cn1 [PF-04691502] | >86.01 | >41.46 | – | – | – | – | – | > 5000 | – | –
8 | 940 | > 5000 | COc1cc(Nc2ncc(F)c(Nc3ccc4c(n3)NC(=O)C(C)(C)O4)n2)cc(OC)c1OC [R406] | >5.32 | – | – | – | – | – | – | > 5000 | – | –
9 | 180 | 160 | N#Cc1c(Oc2ccc(F)c(NC(=O)Cc3cccc(C(F)(F)F)c3)c2)ccc2nc(NC(=O)C3CC3)sc12 [TAK-632] | 11.15 | 12.3 | – | – | – | – | – | 1990 | – | –
10 | 30 | 80 | CCNC(=O)c1[nH]nc(-c2cc(Cl)c(O)cc2O)c1-c1ccc(OC)cc1 [VER-49009] | >186.00 | >60.00 | – | – | – | – | – | > 5000 | – | –
11 | 560 | 1090 | c1cncc(CN2CCC(n3ncc4c(N5CCOCC5)nc(-c5ccc6[nH]ccc6c5)nc43)CC2)c1 [WAY-600] | 5.51 | 2.86 | – | – | – | – | – | 3110 | – | –
12 | 60 | 150 | CNC(=O)Nc1ccc(-c2nc(N3CC4CCC(C3)O4)c3cnn(C4CCC5(CC4)OCCO5)c3n2)cc1 [WYE-125132] | >89.17 | >32.47 | – | – | – | – | – | > 5000 | – | –
13 | 170 | 480 | CC[C@@H](C)Nc1cc(C(=O)N[C@H]2C[C@H]3CC[C@@H](C2)N3c2ccc(C(=O)C3CC3)cn2)c(C)cc1C(N)=O [XL888] | >29.69 | >10.33 | – | – | – | – | – | > 5000 | – | –

Row | SMILES | EC50 (AdV3; Vero cells) [nM] | EC50 (AdV5; Vero cells) [nM] | Selective Index AdV3 (AdV3) | Selective Index AdV5 (AdV5) | reported inhibition of replication of adenovirus 5 (adenovirus 5) | CC50 at 48 h (in vitro) [nM] | inhibition of AdV3 (in words) (AdV3; Vero cells) | inhibition of AdV5 (in words) (AdV5; Vero cells) | selectivity for Aurora kinases than p38α, Tyk2, and JNK2 (Aurora A/B/C) [fold] | CC50 (Vero cells) [nM] | selectivity for Aurora A than Aurora B (Aurora A) [fold] | CC50 at 48 h (in vitro; Vero cells) [nM]
14 | C=CCNC1=C2C[C@@H](C)C[C@H](OC)[C@H](O)[C@@H](C)/C=C(\C)[C@H](OC(N)=O)[C@@H](OC)/C=C\C=C(/C)C(=O)NC(=CC1=O)C2=O [17-AAG] | 500 | > 5000 | >9.93 | >0.46 | inhibit the replication of adenovirus 5 | > 5000 | – | – | – | – | – | –
15 | Cc1cc(Nc2cc(N3CCN(C)CC3)nc(/C=C/c3ccccc3)n2)n[nH]1.O=C(O)C(O)C(O)C(=O)O [ENMD-2076 L-(+)-Tartaric acid] | 1350 | 1390 | – | – | – | – | – | – | – | 4340 | 25 | –
